From article PMC4317638 (Emerging Microbes & Infections, 2014)
Where a name gives a salt, the structure may show the parent alone. Read-outs that look alike come from different tables or passages of the source.

Assays:
[1] = test system: Ebola VLP entry into HeLa cells; experiment: microbe, parasite or virus in culture; assay type: cell-based, Ebola virus; settings: for IC50 / IC90 / Emax: Zaire ebolavirus, HeLa; for IC90: read-out: Block Ebola VLP entry IC90; for Emax: read-out: Block Ebola VLP entry Max. Inh.
in vitro = settings: human, Cytotoxicity IC50
[2] = read-out: Block Ebola VLP entry IC50
[3] = read-out: IC50 of blocking Ebola VLP entry

CCCSc1ccc2nc(NC(=O)OC)[nH]c2c1 [Albendazole]
Selectivity Index [1]: >102 fold | IC50 [1, 2]: 4.9 µM | IC90 [1]: 20.7 µM | Emax [1]: 76% | IC50 [1, 3]: 4.8 µM | IC50 (in vitro): > 500 µM

CCN(CCCc1ccccc1)CCCc1ccccc1 [Alverine Citrate]
Selectivity Index [1]: >58 fold | IC50 [1, 2]: 8.63 µM | IC90 [1]: 21.8 µM | Emax [1]: 90% | IC50 (in vitro): > 500 µM

CCN(CC)Cc1cc(Nc2ccnc3cc(Cl)ccc23)ccc1O [Amodiaquine]
Selectivity Index [1]: >113 fold | IC50 [1, 2]: 4.43 µM | IC90 [1]: 27.3 µM | Emax [1]: 106% | IC50 (in vitro): > 500 µM

CCN(CC)CCCN(c1ccccc1)C1Cc2ccccc2C1 [Aprindine]
Selectivity Index [1]: >65 fold | IC50 [1, 2]: 7.69 µM | IC90 [1]: 26.6 µM | Emax [1]: 93% | IC50 (in vitro): > 500 µM

O=C(CCN1CCN2CCCC2C1)N1c2ccccc2Sc2ccc(Cl)cc21 (centres unmarked) [Azaclorzine]
Selectivity Index [1]: >53 fold | IC50 [1, 2]: 9.43 µM | IC90 [1]: 37.1 µM | Emax [1]: 88% | IC50 (in vitro): > 500 µM

CC[C@H]1OC(=O)[C@H](C)[C@@H](O[C@H]2C[C@@](C)(OC)[C@@H](O)[C@H](C)O2)[C@H](C)[C@@H](O[C@@H]2O[C@H](C)C[C@H](N(C)C)[C@H]2O)[C@](C)(O)C[C@@H](C)CN(C)[C@H](C)[C@@H](O)[C@]1(C)O [Azithromycin]
Selectivity Index [1]: >179 fold | IC50 [1, 2]: 2.79 µM | IC90 [1]: 15.8 µM | Emax [1]: 100% | IC50 (in vitro): > 500 µM

Cc1c(-c2ccc(O)cc2)n(Cc2ccc(OCCN3CCCCCC3)cc2)c2ccc(O)cc12 [Bazedoxifene]
IC50 (in vitro): 43.2 µM

CN1[C@@H]2CC[C@H]1C[C@@H](OC(c1ccccc1)c1ccccc1)C2 [Benztropine]
IC90 [1]: 8.25 µM | Emax [1]: 100% | IC50 (in vitro): 250 µM

Cc1ccc(C(=O)Oc2ccc(C(O)CNC(C)(C)C)cc2OC(=O)c2ccc(C)cc2)cc1 (centres unmarked) [Bitolterol]
Selectivity Index [1]: 41 fold | IC50 [1, 2]: 6.11 µM | IC90 [1]: 22.6 µM | Emax [1]: 85% | IC50 (in vitro): 250 µM

COc1cc(Nc2c(C#N)cnc3cc(OCCCN4CCN(C)CC4)c(OC)cc23)c(Cl)cc1Cl [Bosutinib]
Selectivity Index [1]: 11 fold | IC50 [1, 2]: 3.85 µM | IC90 [1]: 21.3 µM | Emax [1]: 101% | IC50 (in vitro): 43.2 µM

CC(C)C[C@H](NC(=O)[C@H](CCc1ccccc1)NC(=O)CN1CCOCC1)C(=O)N[C@@H](Cc1ccccc1)C(=O)N[C@@H](CC(C)C)C(=O)[C@@]1(C)CO1 [Carfilzomib]
Selectivity Index [1]: >1156 fold | IC50 [1, 2]: 0.432 µM | IC90 [1]: 1.88 µM | Emax [1]: 57% | IC50 (in vitro): > 500 µM

COc1ccc2cc1Oc1ccc(cc1)C[C@H]1c3c(cc4c(c3Oc3cc5c(cc3OC)CCN(C)[C@@H]5C2)OCO4)CCN1C [Cepharanthine]
Selectivity Index [1]: 58 fold | IC50 [1, 2]: 1.53 µM | IC90 [1]: 4.4 µM | Emax [1]: 112% | IC50 (in vitro): 88.9 µM

CCN(CC)CCCC(C)Nc1ccnc2cc(Cl)ccc12 (centres unmarked) [Chloroquine]
Selectivity Index [1]: >32 fold | IC50 [1, 2]: 15.3 µM | IC90 [1]: 133 µM | Emax [1]: 98% | IC50 (in vitro): > 500 µM

CC[C@H]1OC(=O)[C@H](C)[C@@H](O[C@H]2C[C@@](C)(OC)[C@@H](O)[C@H](C)O2)[C@H](C)[C@@H](O[C@@H]2O[C@H](C)C[C@H](N(C)C)[C@H]2O)[C@](C)(OC)C[C@@H](C)C(=O)[C@H](C)[C@@H](O)[C@]1(C)O [Clarithromycin]
Selectivity Index [1]: >110 fold | IC50 [1, 2]: 4.53 µM | IC90 [1]: 15.1 µM | Emax [1]: 100% | IC50 (in vitro): > 500 µM

CN(C)CCCN1c2ccccc2CCc2ccc(Cl)cc21 [Clomipramine]
IC90 [1]: 11.7 µM | Emax [1]: 93% | IC50 (in vitro): 64.1 µM

COc1cc2c(c(OC)c1OC)-c1ccc(OC)c(=O)cc1[C@@H](NC(C)=O)CC2 [Colchicine]
IC90 [1]: 0.354 µM | Emax [1]: 73% | IC50 (in vitro): > 500 µM

CC1CCCCN1CCCOC(=O)c1ccc(OC2CCCCC2)cc1 (centres unmarked) [Cyclomethycaine]
Selectivity Index [1]: >65 fold | IC50 [1, 2]: 7.69 µM | IC90 [1]: 19.6 µM | Emax [1]: 86% | IC50 (in vitro): > 500 µM

COc1cccc2c1C(=O)c1c(O)c3c(c(O)c1C2=O)C[C@@](O)(C(C)=O)C[C@@H]3O[C@H]1C[C@H](N)[C@H](O)[C@H](C)O1 [Daunomycin]
Selectivity Index [1]: >190 fold | IC50 [1, 2]: 2.63 µM | IC90 [1]: 5.4 µM | Emax [1]: 98% | IC50 (in vitro): > 500 µM

C[C@H]1O[C@@H](O[C@H]2CC[C@@]3(C)[C@H](CC[C@@H]4[C@@H]3C[C@@H](O)[C@]3(C)[C@@H](C5=CC(=O)OC5)CC[C@]43O)C2)C[C@H](O)[C@@H]1O[C@H]1C[C@H](O)[C@H](O[C@H]2C[C@H](O)[C@H](O[C@@H]3O[C@H](CO)[C@@H](O)[C@H](O)[C@H]3O)[C@@H](C)O2)[C@@H](C)O1 [Deslanoside]
Selectivity Index [1]: 515 fold | IC50 [1, 2]: 0.485 µM | IC90 [1]: 11.7 µM | Emax [1]: 66% | IC50 (in vitro): 250 µM

CCCCc1oc2ccc(NS(C)(=O)=O)cc2c1C(=O)c1ccc(OCCCN(CCCC)CCCC)cc1 [Dronedarone]
Selectivity Index [1]: 21 fold | IC50 [1, 2]: 2.2 µM | IC90 [1]: 3.51 µM | Emax [1]: 81% | IC50 (in vitro): 48 µM

COc1cc2ncnc(Nc3ccc(F)c(Cl)c3)c2cc1OCCCN1CCOCC1 [Gefitinib]
IC90 [1]: 17.9 µM

CN(C)CCCN1c2ccccc2CCc2ccccc21 [Imipramine]
IC50 (in vitro): > 500 µM

CO[C@@H]1[C@@H](OC)[C@H](C)[C@@](O)(CC(=O)O)O[C@H]1[C@H](C)[C@H]1O[C@@]2(CC[C@@](C)([C@H]3CC[C@@](C)([C@@H]4O[C@@H]([C@H]5O[C@](C)(O)[C@H](C)C[C@@H]5C)C[C@@H]4O[C@@H]4C[C@H](OC)[C@@H](OC)[C@H](C)O4)O3)O2)C[C@H](O)[C@H]1C [Maduramicin]
Selectivity Index [1]: 40 fold | IC50 [1, 2]: 0.611 µM | IC90 [1]: 3.94 µM | Emax [1]: 104% | IC50 (in vitro): 24.3 µM

CNCCCC12CCC(c3ccccc31)c1ccccc12 [Maprotiline]
IC90 [1]: 12.1 µM | Emax [1]: 100% | IC50 (in vitro): 146 µM

COC(=O)Nc1nc2ccc(C(=O)c3ccccc3)cc2[nH]1 [Mebendazole]
Selectivity Index [1]: >145 fold | IC50 [1, 2]: 3.44 µM | IC90 [1]: 14 µM | Emax [1]: 88% | IC50 [1, 3]: 3.4 µM | IC50 (in vitro): > 500 µM

OC(c1cc(C(F)(F)F)nc2c(C(F)(F)F)cccc12)C1CCCCN1 (centres unmarked) [Mefloquine]
Selectivity Index [1]: 16 fold | IC50 [1, 2]: 2.73 µM | IC90 [1]: 13 µM | Emax [1]: 94% | IC50 (in vitro): 43.2 µM

COCC(=O)O[C@]1(CCN(C)CCCc2nc3ccccc3[nH]2)CCc2cc(F)ccc2[C@@H]1C(C)C [Mibefradil]
Selectivity Index [1]: 10 fold | IC50 [1, 2]: 4.32 µM | IC90 [1]: 7.34 µM | Emax [1]: 96% | IC50 (in vitro): 43.2 µM

O=C(Nc1ccc([N+](=O)[O-])cc1Cl)c1cc(Cl)ccc1O [Niclosamide]
Selectivity Index [1]: >188 fold | IC50 [1, 2]: 2.66 µM | IC90 [1]: 6.6 µM | Emax [1]: 81% | IC50 (in vitro): > 500 µM

Cc1cn(-c2cc(NC(=O)c3ccc(C)c(Nc4nccc(-c5cccnc5)n4)c3)cc(C(F)(F)F)c2)cn1 [Nilotinib]
Selectivity Index [1]: 2 fold | IC50 [1, 2]: 24.3 µM | IC90 [1]: 104 µM | Emax [1]: 100% | IC50 [1, 3]: 15.3 µM | IC50 (in vitro): 50.1 µM

COC(=O)Nc1nc2ccc(C(=O)c3cccs3)cc2[nH]1 [Nocodazole]
Selectivity Index [1]: >1242 fold | IC50 [1, 2]: 0.402 µM | IC90 [1]: 1.04 µM | Emax [1]: 87% | IC50 [1, 3]: 0.4 µM | IC50 (in vitro): > 500 µM

CCCOc1ccc2nc(NC(=O)OC)[nH]c2c1 [Oxibendazole]
Selectivity Index [1]: >291 fold | IC50 [1, 2]: 1.72 µM | IC90 [1]: 3.75 µM | Emax [1]: 57% | IC50 (in vitro): > 500 µM

CC(=O)c1ccc2c(c1)N(CCCN1CCC(CCO)CC1)c1ccccc1S2 [Piperacetazine]
Selectivity Index [1]: >52 fold | IC50 [1, 2]: 9.68 µM | IC90 [1]: 18.1 µM | Emax [1]: 90% | IC50 (in vitro): > 500 µM

CC[C@@H]([C@H](C)O)n1ncn(-c2ccc(N3CCN(c4ccc(OC[C@@H]5CO[C@@](Cn6cncn6)(c6ccc(F)cc6F)C5)cc4)CC3)cc2)c1=O [Posaconazole]
Selectivity Index [1]: >65 fold | IC50 [1, 2]: 7.69 µM | IC90 [1]: 8.33 µM | Emax [1]: 77% | IC50 (in vitro): > 500 µM

CCCN(CCC)C(=O)C(CCC(=O)OCCCN1CCN(CCOC(=O)Cc2c(C)n(C(=O)c3ccc(Cl)cc3)c3ccc(OC)cc23)CC1)NC(=O)c1ccccc1 (centres unmarked) [Proglumetacin]
Selectivity Index [1]: >73 fold | IC50 [1, 2]: 6.85 µM | IC90 [1]: 17.3 µM | Emax [1]: 93% | IC50 (in vitro): > 500 µM

CCCNCC(O)COc1ccccc1C(=O)CCc1ccccc1 (centres unmarked) [Propafenone]
Selectivity Index [1]: >80 fold | IC50 [1, 2]: 6.25 µM | IC90 [1]: 23.8 µM | Emax [1]: 100% | IC50 [1, 3]: 6.2 µM | IC50 (in vitro): > 500 µM

O=C(c1ccc(OCCN2CCCCC2)cc1)c1c(-c2ccc(O)cc2)sc2cc(O)ccc12 [Raloxifene/Evista, Raloxifene]
Selectivity Index [1]: >271 fold | IC50 [1, 2]: 1.84 µM | IC90 [1]: 9.01 µM | Emax [1]: 100% | IC50 [1, 3]: 1.8 µM | IC50 (in vitro): > 500 µM

OCc1cc(C(O)CNCCCCCCOCCCCc2ccccc2)ccc1O (centres unmarked) [Salmeterol]
Selectivity Index [1]: >52 fold | IC50 [1, 2]: 9.68 µM | IC90 [1]: 13 µM | Emax [1]: 90% | IC50 (in vitro): > 500 µM

CCN(CC)CCNC(=O)c1c(C)[nH]c(/C=C2\C(=O)Nc3ccc(F)cc32)c1C [Sunitinib]
Selectivity Index [1]: 77 fold | IC50 [1, 2]: 1.91 µM | IC90 [1]: 3.82 µM | Emax [1]: 90% | IC50 (in vitro): 148 µM

CC/C(=C(\c1ccccc1)c1ccc(OCCN(C)C)cc1)c1ccccc1 [Tamoxifen]
IC90 [1]: 3.15 µM | Emax [1]: 97% | IC50 (in vitro): 99.8 µM

CN1CCN(CCCN2c3ccccc3Sc3ccc(S(=O)(=O)N(C)C)cc32)CC1 [Thioproperazine]
IC50 [1, 2]: 4.32 µM | IC90 [1]: 12.5 µM | Emax [1]: 103% | IC50 (in vitro): > 500 µM

CN[C@H]1CC[C@@H](c2ccc(Cl)c(Cl)c2)c2ccccc21 [Zoloft, sertraline]
IC90 [1]: 9.08 µM

Maraviroc
Activity in the Ebola VLP assay [1]: not active
